Data reported in US10294230B2, “3,3-difluoropiperidine carbamate heterocyclic compounds as NR2B NMDA receptor antagonists” (Rugen Holdings (Cayman) Limited, priority 2015, dated 2019).
pIC50, pKi: −log10 of the molar value.

Columns and labels:
[1] = system: haloperidol-induced catalepsy; experiment: Haloperidol-Induced Catalepsy (HIC) Model; type: in vivo; conditions: rats
Text: The Haloperidol-induced Catalepsy (HIC) model detects antipsychotic activity and the action of NR2B selective antagonists (Steece-Collier et al. Exp. Neurol. 163: 239, 2000) and was based on methods described by Chermat and Simon (J. Pharmacol., 6, 493-496, 1975). The capacity to induce catalepsy serves as an index of the liability of a test substance to induce extrapyramidal side-effects, in particular Parkinsonism. Antagonism of antipsychotic-induced catalepsy can thus serve to detect anti-Parkinson potential.
Rats were injected with haloperidol (1 mg/kg i.p.) and were examined for catalepsy at 30 minute intervals up to 360 minutes. Presence (+) or absence (−) of catalepsy was assessed by three procedures: 1) imposed crossing of the ipsilateral fore- and hind-limbs; 2) placing the animal in the Buddha position; 3) the tilting board, an automatic device that, 5 seconds after positioning the rat, displaces the rat from a horizontal to vertical position and back while it clings to a wire grid with its front paws. Akinesia and catalepsy were assessed depending on whether or not the animal moves before (akinesia) or during operation of the board (catalepsy).
The 4 scores were cumulated over time to give a global catalepsy score per animal. Six rats were studied per group. The test was performed blind (test substances versus vehicle). Test substances were evaluated at 1 or more doses, administered typically using 0.5% dimethylsulfoxide, 4% hydroxypropyl-b-cyclodextrin water as a vehicle p.o. 15 minutes before haloperidol (i.e. 45 minutes before the first measurement), and compared with a vehicle control group.
Amphetamine (8 mg/kg p.o.), administered 60 minutes before the test (i.e. 90 minutes before the first measurement), was used as reference substance. Data with the test substances were analyzed by comparing treated groups with vehicle control using Kruskal-Wallis Test followed by Mann-Whitney U tests at each time and for cumulated score. Data with the reference substance were analyzed using Mann-Whitney U tests.

human NR1/NR2B = human NR1/NR2B (Homo sapiens (Human), UniProt Q05586+Q13224); experiment: NR2B antagonist activity, Fluo-4 calcium influx in HEK293 cells; type: cell-based
Chain of human NR1/NR2B (Q13224 27-1484, other chains not shown): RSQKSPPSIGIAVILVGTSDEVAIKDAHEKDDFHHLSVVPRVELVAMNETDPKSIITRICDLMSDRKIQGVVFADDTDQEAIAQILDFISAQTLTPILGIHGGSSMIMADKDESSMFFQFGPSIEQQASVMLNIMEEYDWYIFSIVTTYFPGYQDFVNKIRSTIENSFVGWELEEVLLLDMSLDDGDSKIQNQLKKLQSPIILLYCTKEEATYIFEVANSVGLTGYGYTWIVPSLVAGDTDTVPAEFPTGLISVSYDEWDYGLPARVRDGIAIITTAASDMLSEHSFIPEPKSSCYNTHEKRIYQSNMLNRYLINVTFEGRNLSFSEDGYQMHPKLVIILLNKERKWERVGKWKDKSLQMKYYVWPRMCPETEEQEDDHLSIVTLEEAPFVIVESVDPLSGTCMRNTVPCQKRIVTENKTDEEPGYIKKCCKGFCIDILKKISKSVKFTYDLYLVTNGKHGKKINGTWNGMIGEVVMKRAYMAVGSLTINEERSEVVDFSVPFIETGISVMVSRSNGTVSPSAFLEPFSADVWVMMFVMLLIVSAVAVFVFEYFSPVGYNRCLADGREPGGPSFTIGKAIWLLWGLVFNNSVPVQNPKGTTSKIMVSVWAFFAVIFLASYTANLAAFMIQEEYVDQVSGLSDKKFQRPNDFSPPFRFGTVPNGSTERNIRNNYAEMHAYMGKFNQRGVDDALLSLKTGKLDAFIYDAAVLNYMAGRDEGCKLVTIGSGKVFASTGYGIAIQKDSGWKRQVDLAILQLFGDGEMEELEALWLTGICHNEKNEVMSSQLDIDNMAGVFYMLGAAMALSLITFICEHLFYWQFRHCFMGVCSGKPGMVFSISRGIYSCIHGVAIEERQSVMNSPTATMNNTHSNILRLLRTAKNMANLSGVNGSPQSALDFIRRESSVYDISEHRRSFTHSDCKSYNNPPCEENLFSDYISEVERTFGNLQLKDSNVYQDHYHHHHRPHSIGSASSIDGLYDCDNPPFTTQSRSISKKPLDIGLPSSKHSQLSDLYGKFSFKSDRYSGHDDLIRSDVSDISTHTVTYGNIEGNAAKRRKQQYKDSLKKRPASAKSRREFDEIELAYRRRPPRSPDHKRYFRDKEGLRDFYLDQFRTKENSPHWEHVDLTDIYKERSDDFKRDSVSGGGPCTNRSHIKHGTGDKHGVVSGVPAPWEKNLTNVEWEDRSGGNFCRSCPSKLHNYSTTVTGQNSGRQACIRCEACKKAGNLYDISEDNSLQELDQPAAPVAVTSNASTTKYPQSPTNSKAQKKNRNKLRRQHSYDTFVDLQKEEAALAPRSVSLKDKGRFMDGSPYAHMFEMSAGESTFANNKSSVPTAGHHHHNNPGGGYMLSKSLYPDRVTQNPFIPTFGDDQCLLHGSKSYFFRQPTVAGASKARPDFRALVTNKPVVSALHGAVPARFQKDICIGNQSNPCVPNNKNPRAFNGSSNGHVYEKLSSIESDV
Description: HEK293 cell lines stably expressing cloned human NR1/NR2B and NR1/NR2A, respectively, were established according to standard previously described methods (Hansen et al., Comb. Chem High Throughput Screen. 11:304, 2008). Activation of the NR2A or NR2B subtype of NMDA receptor with glutamate as an agonist and glycine co-agonist on these cells results in calcium influx, which can be monitored with fluorescent indicator Fluo-4.
For experiments, the cells were seeded onto poly-D-lysine-coated 96-well black plates with clear bottom (Corning) at a density of ˜50,000 cells/well. After overnight culture, the growth medium was removed from the wells and the cells were incubated at 37° C. for 60 min in Hanks buffer containing 4 μM fluo-4-AM (Invitrogen) and 0.1% bovine serum albumin (BSA). After dye-loading, the cells were washed three times with Hanks buffer and incubated for 10 min at room temperature with various concentrations of test compounds prepared in Hanks buffer with 0.1% BSA. The cell plates were placed onto FDSS pCell fluorescence reader (Hamamatsu). After 20 sec reading of background fluorescence, agonist glutamate at final 100 μM and co-agonist glycine at final 50 μM were added to the cells to activate the receptor, and the resulting fluorescence changes were recorded and quantified. Based on the changes in fluorescence intensity, the pharmacological effect of test compounds were analyzed and the IC50 values derived from a non-linear least squares fitting of the concentration-dependent response to a standard logistic equation using Prism (Graphpad, Inc): Amplitude=Max Amplitude/(1+(IC50/[antagonist])^n).

NMDA receptor = experiment: [3H] MK-801 radioligand binding, rat brain membranes; conditions: 2 nM [3H] MK-801
Description: (§1) This example describes NMDA receptor binding assays using two different radioligands, [^3H] […] An established binding assay using the non-selective NMDA receptor ligand [^3H] […] The binding assay method using the NR2B selective receptor ligand [^3H] […] This assay serves as a selective measure of NR2B receptor binding activity in native rat brain receptors. Briefly, the brains of Male Wistar rats were homogenized (Polytron) before centrifugation at 40,000×g for 15 minutes at 4° C. After 2 washes, the final pellet was homogenized and stored at −80° C. The protein concentration was determined by Bradford assay.
(§2) Test compounds were solubilized at 10 mM in DMSO. Then the dilutions were performed with a constant solvent concentration (1% DMSO) in the assay.
(§3) After incubation for 4.5 h at room temperature, the assays were filtered on GF/B filters pretreated with 0.3% (v/v) PEI with a Brandel system for [^3H] […] The experiment was performed in duplicate (n=2).

NR2B receptor = NR2B receptor (Rattus norvegicus (Rat), UniProt P35439+Q00960); experiment: [3H] (E)-N1-(2-methoxybenzyl)-cinnamidine radioligand binding, rat brain membranes
Chain of NR2B receptor (Q00960 27-1482, other chains not shown): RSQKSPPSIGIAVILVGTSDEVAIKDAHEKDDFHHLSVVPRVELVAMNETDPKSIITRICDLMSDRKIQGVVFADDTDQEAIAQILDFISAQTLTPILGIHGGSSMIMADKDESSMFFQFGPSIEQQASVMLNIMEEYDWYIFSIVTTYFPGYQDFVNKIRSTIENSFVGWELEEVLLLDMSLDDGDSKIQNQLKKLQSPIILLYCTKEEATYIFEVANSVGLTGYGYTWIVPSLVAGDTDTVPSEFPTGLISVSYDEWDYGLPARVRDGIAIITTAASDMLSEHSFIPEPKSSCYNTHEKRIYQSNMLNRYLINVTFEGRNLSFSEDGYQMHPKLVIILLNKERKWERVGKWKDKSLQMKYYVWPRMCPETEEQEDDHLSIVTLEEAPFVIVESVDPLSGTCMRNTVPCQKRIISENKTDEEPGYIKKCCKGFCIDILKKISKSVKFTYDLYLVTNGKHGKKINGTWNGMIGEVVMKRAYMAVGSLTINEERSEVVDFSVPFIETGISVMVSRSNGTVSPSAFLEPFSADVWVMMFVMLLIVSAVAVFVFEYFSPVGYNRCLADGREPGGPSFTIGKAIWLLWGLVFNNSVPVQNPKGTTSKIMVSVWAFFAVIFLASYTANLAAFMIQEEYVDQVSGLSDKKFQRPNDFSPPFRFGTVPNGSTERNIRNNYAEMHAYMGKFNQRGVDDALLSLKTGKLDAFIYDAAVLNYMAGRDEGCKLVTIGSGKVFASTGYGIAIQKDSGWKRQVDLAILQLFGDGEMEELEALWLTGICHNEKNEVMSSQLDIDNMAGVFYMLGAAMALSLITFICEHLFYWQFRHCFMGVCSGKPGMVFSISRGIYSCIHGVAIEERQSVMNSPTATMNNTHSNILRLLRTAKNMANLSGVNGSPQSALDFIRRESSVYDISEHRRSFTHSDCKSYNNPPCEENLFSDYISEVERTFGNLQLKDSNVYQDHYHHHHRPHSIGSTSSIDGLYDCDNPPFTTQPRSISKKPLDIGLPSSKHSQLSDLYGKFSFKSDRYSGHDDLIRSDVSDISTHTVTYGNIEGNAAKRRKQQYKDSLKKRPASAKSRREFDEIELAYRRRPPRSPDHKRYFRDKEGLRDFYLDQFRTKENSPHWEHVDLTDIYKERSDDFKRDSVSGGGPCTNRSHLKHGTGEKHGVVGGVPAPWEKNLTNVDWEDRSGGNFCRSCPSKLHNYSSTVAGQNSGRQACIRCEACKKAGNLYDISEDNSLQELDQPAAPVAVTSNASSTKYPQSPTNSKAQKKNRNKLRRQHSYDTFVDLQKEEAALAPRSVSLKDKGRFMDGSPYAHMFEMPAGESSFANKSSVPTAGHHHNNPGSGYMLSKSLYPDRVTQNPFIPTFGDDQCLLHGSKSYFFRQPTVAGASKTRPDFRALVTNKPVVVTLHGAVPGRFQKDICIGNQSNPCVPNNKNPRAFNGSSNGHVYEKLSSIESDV
Description: as §1
[^3H] […] Thus, using [^3H]
as §2, §3

[2] = system: electroconvulsive threshold (tonic convulsions); experiment: Electroconvulsive Threshold Test (ECT); type: in vivo, rats; conditions: rats, 3, 10 and 30 mpk p.o., mesylate salt
Description: Test compound E1-8.2 was administered as the free base.
Rats were administered ECS (rectangular current: 0.6 ms pulse width, 1.5 s duration, 200 Hz) via earclip electrodes connected to a constant current shock generator (Ugo Basile: type 7801). Test compounds were administered by oral gavage (p.o.) 1 hour before the test at a dose volume of 5 mL/kg.
Treatment groups of 20 rats were exposed to ECS as follows: The first animal was exposed to 30 mA of ECS. […] (increases of 5 mA) until the first tonic convulsion was observed. Once the first tonic convulsion was observed, the intensity of ECS was decreased by 2 mA for the next animal and then decreased or increased by 2 mA from animal to animal depending on whether the previous animal convulsed or not. If the first animal did convulse (tonic convulsions) within 5 seconds, animal no2 is exposed to 25 mA, etc. . . . (decreases of 5 mA) until the absence of tonic convulsions was observed. At this point, the intensity of ECS was increased by 2 mA for the next animal and then decreased or increased by 2 mA from animal to animal depending on whether the previous animal convulsed or not. The minimum current intensity applied is 5 mA and the maximum 95 mA. The first 5 animals serve to approach threshold current and were not included in the analysis. The results are presented as the mean current intensity administered to the final 15 animals of a group. The test was performed blind. A positive percent change indicates an anticonvulsant effect. A negative percent change indicates a proconvulsant effect. The test substance was evaluated at 4 doses, typically using 0.5% dimethylsulfoxide, 4% hydroxypropyl-b-cyclodextrin water as a vehicle, and administered p.o. 60 minutes before ECS, and compared with a vehicle control group. Diazepam (16 mg/kg p.o.), administered under the same experimental conditions, was used as reference substance. The experiment included 6 groups. Data with the test substance was analyzed by comparing treated groups with vehicle control using one-way ANOVA followed by Dunnett's t tests.

hERG channel = hERG channel (Homo sapiens (Human), UniProt Q12809); experiment: hERG channel inhibition, whole cell patch clamp in HEK293 cells; type: cell-based
Chain of hERG channel (Q12809 whole entry): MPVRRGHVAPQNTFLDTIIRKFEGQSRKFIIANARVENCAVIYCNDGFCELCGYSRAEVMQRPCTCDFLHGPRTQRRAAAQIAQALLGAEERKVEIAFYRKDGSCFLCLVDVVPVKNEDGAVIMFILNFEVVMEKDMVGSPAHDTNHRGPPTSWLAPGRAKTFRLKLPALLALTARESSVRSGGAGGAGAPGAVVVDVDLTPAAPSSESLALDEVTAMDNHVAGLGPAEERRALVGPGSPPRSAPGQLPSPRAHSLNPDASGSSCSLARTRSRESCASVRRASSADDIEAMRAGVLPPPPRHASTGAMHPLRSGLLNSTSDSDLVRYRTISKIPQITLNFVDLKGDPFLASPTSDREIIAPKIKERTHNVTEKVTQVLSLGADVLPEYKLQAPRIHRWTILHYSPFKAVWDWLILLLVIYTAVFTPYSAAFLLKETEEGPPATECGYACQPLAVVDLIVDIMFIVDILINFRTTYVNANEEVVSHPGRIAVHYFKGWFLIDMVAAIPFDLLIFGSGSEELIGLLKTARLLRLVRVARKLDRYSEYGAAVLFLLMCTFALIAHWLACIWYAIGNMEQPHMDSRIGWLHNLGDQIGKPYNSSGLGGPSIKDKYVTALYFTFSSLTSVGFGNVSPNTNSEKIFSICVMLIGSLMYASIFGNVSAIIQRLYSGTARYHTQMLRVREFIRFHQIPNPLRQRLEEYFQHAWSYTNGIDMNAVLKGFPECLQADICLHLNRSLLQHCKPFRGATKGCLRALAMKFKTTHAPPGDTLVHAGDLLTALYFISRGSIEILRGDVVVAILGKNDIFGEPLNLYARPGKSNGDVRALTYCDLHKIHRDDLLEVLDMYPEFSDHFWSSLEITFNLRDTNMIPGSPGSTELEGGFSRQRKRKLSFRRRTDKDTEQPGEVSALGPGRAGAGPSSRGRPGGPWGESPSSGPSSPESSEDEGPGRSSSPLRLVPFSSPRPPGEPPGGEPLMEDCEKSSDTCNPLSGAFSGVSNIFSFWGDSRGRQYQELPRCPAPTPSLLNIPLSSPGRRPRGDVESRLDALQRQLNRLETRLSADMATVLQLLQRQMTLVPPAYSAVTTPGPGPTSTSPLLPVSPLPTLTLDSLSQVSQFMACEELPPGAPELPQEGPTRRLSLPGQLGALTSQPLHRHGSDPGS
Description: The assay was performed on hERG channel stably expressed in HEK293 cells. The cells were cultured at 37° C. in a humidified CO2 incubator in the growth medium consisting of DMEM, 10% fetal bovine serum and antibiotics. Prior to the assay, the cells were seeded onto a 12 mm PDL-coated glass coverslip and cultured in a 35 mm Petri dish. After 16 to 40 hr culture, the cover slip was transferred into the chamber of OctaFlow perfusion system (ALA Instrument) and under a constant flow of extracellular solution (140 mM NaCl, 4 mM KCl, 1 mM MgCl2, 2 mM CaCl2, 10 mM HEPES, 10 mM D-glucose, pH 7.35, osmolarity 290). Whole cell patch clamping was performed with a glass micropipette filled with intracellular solution (120 mM KCl, 1.75 mM MgCl2, 5.4 mM CaCl2, 10 mM HEPES, 10 mM EGTA, and 4 mM ATP-K2, PH 7.2, osmolarity 310). Giga-seal was maintained during the test. The voltage control and current measurement were carried out using Axon amplifier 700B, Digidata 1440A and CLAMPEX10 software (Molecular Devices). Whole-cell hERG currents were recorded following the Petroski protocol: the cell was held at −80 mV, and the voltage step jumped from −80 to 30 mV and stay for 2 sec with a 20 ms prepulse at −40 mV. After depolarization, the voltage was decreased to −40 mV and stay for 2 sec, and returned back to −80 mV. Test compound was applied by quartz capillary tubes tip (200 μm inner diameter), and the flow rate was controlled at 2-3 ml/min with OctaFlow perfusion system. Different concentrations of the compound were applied to the cells for 5 min and the hERG current was measured three times before, during and after compound treatment. The data were analyzed using Clampfit 10 software (Molecular Devices) to generate IC50 values.

Cc1ccc(COC(=O)N2CC[C@H](CNc3nccn4cnnc34)C(F)(F)C2)cc1 [Compound E1-1.2, (+)-R-4-methylbenzyl 4-(([1,2,4]triazolo[4,3-a]pyrazin-8-ylamino)methyl)-3,3-difluoropiperidine-1-carboxylate]
cumulated score of catalepsy over 360 mins ([1]; 1 mg/kg p.o.): 17.0
cumulated score of catalepsy over 360 mins ([1]; 3 mg/kg p.o.): 15.8
cumulated score of catalepsy over 360 mins ([1]; p.o., dose not printed in the sentence (other doses 1 and 3 mg/kg)): 2.0
pIC50 (human NR1/NR2B; Table 2.1, HEK293 human NR1/NR2B, glutamate 100 μM, glycine 50 μM): 7.68
pIC50 (human NR1/NR2B; Table 2.2): 7.68
pIC50 (human NR1/NR2B; Table 2.3): 7.68
partial effect on [3H] MK-801 binding (NMDA receptor): 40%
displacement of [3H] (E)-N1-(2-methoxybenzyl)-cinnamidine at the NR2B receptor high affinity site (NR2B receptor; rat brain membranes): 96%
pKi (NR2B receptor; read-out: Ki at the NR2B receptor high affinity site): 8.28
electroconvulsive threshold, pro-/anticonvulsant activity [2]: robust anticonvulsant activity
hERG @ 10 μM (%) (hERG channel; 10 μM): 17%
pIC50 (hERG channel; HEK293, whole cell patch clamp): 4.40
